Data on 18 compounds can be found in patent US9085576B2 (AMGEN INC., priority 2013, dated 2015).

The target in experiment [1] is Beta Secretase enzyme (BACE) (Homo sapiens (Human), UniProt P56817). The experiment is described as follows: In vitro enzymatic BACE FRET assay. Type of experiment: biochemical. To be noted: read-out: BACE1 Enzyme assay IC50.
Another experiment has as its target Cathepsin D (Cat D) (Homo sapiens (Human), UniProt P07339). The experiment is described as follows: In vitro enzymatic Cathepsin D (Cat D) FRET assay. Type of experiment: biochemical.
Another experiment relates to Abeta 40. Briefly: In vivo inhibition of beta-secretase: Abeta 40 reduction in CSF and brain of the rat. To be noted: after 4 hrs; for % reduction of rat CSF levels at 10 pmk / % reduction of rat CSF levels (3 mpk): Abeta 40 in rat CSF; for % reduction of rat CSF levels at 10 pmk / % reduction of rat brain levels at 10 mpk: 10 mpk; for % reduction of rat brain levels at 10 mpk / % reduction of rat brain levels (3 mpk): Abeta 40 in rat brain.

A further experiment deals with BACE (Homo sapiens (Human), UniProt P56817). The experiment is described as follows: In vitro BACE cell-based assay (Aβ40 in conditioned medium, sandwich ELISA). (In an ELISA, binding on a coated surface is turned into a signal by an enzyme label.)

Where a name gives a salt, the structure may show the parent alone. Read-outs that look alike come from different tables or passages of the source.

The term IC50 denotes the concentration that gives 50% inhibition.

Chain of Cathepsin D (Cat D) (P07339 65-412, species assumed): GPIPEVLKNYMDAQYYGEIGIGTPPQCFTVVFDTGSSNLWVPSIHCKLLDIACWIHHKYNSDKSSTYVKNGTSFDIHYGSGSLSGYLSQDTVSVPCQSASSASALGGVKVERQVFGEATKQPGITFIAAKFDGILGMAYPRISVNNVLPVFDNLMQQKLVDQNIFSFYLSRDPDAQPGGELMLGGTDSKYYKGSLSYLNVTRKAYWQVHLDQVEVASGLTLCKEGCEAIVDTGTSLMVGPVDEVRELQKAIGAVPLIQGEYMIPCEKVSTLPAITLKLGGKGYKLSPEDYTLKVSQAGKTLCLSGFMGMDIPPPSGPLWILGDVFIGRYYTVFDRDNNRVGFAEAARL
Chain of BACE (P56817 46-501, species assumed): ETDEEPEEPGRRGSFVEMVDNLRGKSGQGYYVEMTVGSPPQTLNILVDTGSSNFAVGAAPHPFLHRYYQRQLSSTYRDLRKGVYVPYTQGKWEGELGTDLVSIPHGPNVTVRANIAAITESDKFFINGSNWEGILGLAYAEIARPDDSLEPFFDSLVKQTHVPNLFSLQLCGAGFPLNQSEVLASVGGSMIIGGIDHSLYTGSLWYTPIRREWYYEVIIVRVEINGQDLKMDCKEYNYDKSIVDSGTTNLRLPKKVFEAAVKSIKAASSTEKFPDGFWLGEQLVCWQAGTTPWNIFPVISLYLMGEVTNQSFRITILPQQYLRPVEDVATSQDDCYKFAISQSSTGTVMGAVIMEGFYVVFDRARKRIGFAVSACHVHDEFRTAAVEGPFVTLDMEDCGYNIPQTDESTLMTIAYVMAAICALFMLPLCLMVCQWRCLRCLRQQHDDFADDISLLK
Chain of Beta Secretase enzyme (BACE) (P56817 46-501): as the sequence (P56817 46-501, species assumed) above
Text for Abeta 40: In Vivo Inhibition of Beta-Secretase
Several animal models, including mouse, rat, dog, and monkey, may be used to screen for inhibition of beta-secretase activity in vivo following administration of a test compound sample. […] A separate group of animals receive 2% hydroxypropyl methylcellulose, 1% Tween80 alone, containing no test compound, and serve as a vehicle-control group. At the end of the test period, animals are sacrificed and brain tissues, plasma or cerebrospinal fluid are collected. […] Homogenates are centrifuged at 355,000 g, 4° C. for 30 minutes. CSF or brain supernatants are then analyzed for the presence of A-beta peptide by specific sandwich ELISA assays based on ECL (Electrochemiluminescence) technology. For example, rat Abeta40 is measured using biotinylated-4G8 (Signet) as a capture antibody and Fab40 (an in-house antibody specific to the C-terminal of Abeta40) as a detection antibody.
Actual vehicles used: Oral: 2% HPMC, 1% Tween80, pH 2.2
Experimental for Cathepsin D (Cat D): In Vitro Enzymatic Cathepsin D (Cat D) FRET (Fluorescence Resonance Energy Transfer) Assay
Recombinant Cat D was expressed in CHO cells. The assay buffer for CathepsinD is 0.05 M citrate pH 3.5, 10% DMSO final, 5 mM CHAPS. […] The assays are effectively started by the addition of different FRET substrates (20 nM for Cat D) and the combination is incubated for one hour. The FRET assay is terminated with by addition of Tris buffer, which raises the pH to neutrality, and the fluorescence is determined. […] Proteolytic cleavage of the FRET substrate releases quenching of fluorescence (Cat D excitation 500 nm and emission 580 nm).

On to `Cc1cc(Cl)cnc1C(=O)Nc1ccc(F)c([C@@]2(C(F)F)N=C(N)O[C@@H]3C[C@@H]32)c1` [Example 43, N-(3-((1R,5S,6R)-3-amino-5-(difluoromethyl)-2-oxa-4-azabicyclo[4.1.0]hept-3-en-5-yl)-4-fluorophenyl)-5-chloro-3-methylpicolinamide], for which the half-maximal inhibitory concentration (IC50) in experiment [1] is 0.0225 µM; at Cathepsin D (Cat D) (Cat D FRET assay, first procedure, read-out: Cat D IC50) it was above 400 µM; at Cathepsin D (Cat D) (read-out: CatD IC50), 596 µM; against BACE it was 0.0314 µM. Besides, the “% reduction of rat CSF levels at 10 pmk” value with Abeta 40 is 70%. For the same compound, the “% reduction of rat brain levels at 10 mpk” value (shortened to “% reduction … at 10 mpk”) in the experiment on Abeta 40 worked out at 59%.

Consider `Cc1cc(C#N)cnc1C(=O)Nc1ccc(F)c([C@@]2(C(F)F)N=C(N)O[C@@H]3C[C@@H]32)c1` [Example 44, N-(3-((1R,5S,6R)-3-amino-5-(difluoromethyl)-2-oxa-4-azabicyclo[4.1.0]hept-3-en-5-yl)-4-fluorophenyl)-5-cyano-3-methylpicolinamide], for which, in experiment [1], the 50% inhibitory concentration (IC50) was 0.0142 µM. Also, at Cathepsin D (Cat D) (read-out: CatD IC50), the 50% inhibitory concentration (IC50) was 376 µM. Besides, in the experiment on Abeta 40, the “% reduction of rat CSF levels (3 mpk)” value is 69 (3 mpk) %, the “% reduction of rat CSF levels at 10 pmk” value is reported as 80%, the “% reduction of rat brain levels (3 mpk)” value is 52 (3 mpk) % and the “% reduction … at 10 mpk” value is listed as 73%. At BACE, the IC50 stood at 0.017 µM.

With `COc1cc(C#N)cnc1C(=O)Nc1ccc(F)c([C@@]2(C(F)F)N=C(N)O[C@@H]3C[C@@H]32)c1` [Example 45, N-(3-((1R,5S,6R)-3-amino-5-(difluoromethyl)-2-oxa-4-azabicyclo[4.1.0]hept-3-en-5-yl)-4-fluorophenyl)-5-cyano-3-methoxypicolinamide], the concentration for half-maximal inhibition (IC50) was 0.0555 µM in experiment [1], 3450 µM at Cathepsin D (Cat D) (read-out: CatD IC50) and 0.0372 µM on BACE. Moreover, in the experiment on Abeta 40, the “% reduction of rat CSF levels at 10 pmk” value worked out at 31%. The “% reduction … at 10 mpk” value in the experiment with Abeta 40 came to 6%.

Turning to `N#Cc1cnc(C(=O)Nc2ccc(F)c([C@@]3(C(F)F)N=C(N)O[C@@H]4C[C@@H]43)c2)c(Cl)c1` [Example 66, N-(3-((1R,5S,6R)-3-amino-5-(difluoromethyl)-2-oxa-4-azabicyclo[4.1.0]hept-3-en-5-yl)-4-fluorophenyl)-3-chloro-5-cyanopicolinamide], the half-maximal inhibitory concentration (IC50) at Cathepsin D (Cat D) (read-out: CatD IC50) was determined as 825 µM. Further, in the experiment on Abeta 40, the “% reduction of rat CSF levels at 10 pmk” value is listed as 59% and the “% reduction … at 10 mpk” value was 42%.

For `COc1cnc(C(=O)Nc2ccc(F)c([C@@]3(C(F)F)N=C(N)O[C@@H]4C[C@@H]43)c2)c(Cl)c1` [Example 70, N-(3-((1R,5S,6R)-3-amino-5-(difluoromethyl)-2-oxa-4-azabicyclo[4.1.0]hept-3-en-5-yl)-4-fluorophenyl)-3-chloro-5-methoxypicolinamide], the IC50 turned out to be 0.0568 µM in experiment [1], 379 µM at Cathepsin D (Cat D) (read-out: CatD IC50) and 0.0386 µM at BACE. Besides, the “% reduction of rat CSF levels at 10 pmk” value in the experiment with Abeta 40 is reported as 65%. For the same compound, in the experiment on Abeta 40, the “% reduction … at 10 mpk” value amounted to 51%.

As to `NC1=N[C@@](c2cc(NC(=O)c3ncc(Cl)cc3Cl)ccc2F)(C(F)F)[C@H]2C[C@H]2O1` [Example 71, N-(3-((1R,5S,6R)-3-amino-5-(difluoromethyl)-2-oxa-4-azabicyclo[4.1.0]hept-3-en-5-yl)-4-fluorophenyl)-3,5-dichloropicolinamide], at Cathepsin D (Cat D) (read-out: CatD IC50), the half-maximal inhibitory concentration (IC50) came out at 478 µM. Also, in the experiment with Abeta 40, the “% reduction of rat CSF levels at 10 pmk” value amounted to 80% and the “% reduction … at 10 mpk” value came to 73%.

As for `NC1=N[C@@](c2cc(NC(=O)c3ccc(Br)cn3)ccc2F)(C(F)F)[C@H]2C[C@H]2O1` [Example 74, N-(3-((1R,5S,6R)-3-amino-5-(difluoromethyl)-2-oxa-4-azabicyclo[4.1.0]hept-3-en-5-yl)-4-fluorophenyl)-5-bromopicolinamide], the half-inhibitory concentration (IC50) amounted to 0.0247 µM in experiment [1], 282 µM on Cathepsin D (Cat D) (read-out: CatD IC50) and 0.0181 µM at BACE. In addition, the “% reduction of rat CSF levels at 10 pmk” value in the experiment on Abeta 40 was determined as 56%. In addition, the “% reduction … at 10 mpk” value in the experiment with Abeta 40 was found to be 46%.

With `NC1=N[C@@](c2cc(NC(=O)c3ccc(Cl)cn3)ccc2F)(C(F)F)[C@H]2C[C@H]2O1` [Example 76, N-(3-((1R,5S,6R)-3-amino-5-(difluoromethyl)-2-oxa-4-azabicyclo[4.1.0]hept-3-en-5-yl)-4-fluorophenyl)-5-chloropicolinamide], the IC50 in experiment [1] turned out to be 0.0266 µM; on Cathepsin D (Cat D) (read-out: CatD IC50), 684 µM; at BACE it was 0.0302 µM. Besides, the “% reduction of rat CSF levels at 10 pmk” value in the experiment on Abeta 40 is on record as 64%. The “% reduction … at 10 mpk” value in the experiment on Abeta 40 turned out to be 60%.

`N#Cc1ccc(C(=O)Nc2ccc(F)c([C@@]3(C(F)F)N=C(N)O[C@@H]4C[C@@H]43)c2)nc1` [Example 77, N-(3-((1R,5S,6R)-3-amino-5-(difluoromethyl)-2-oxa-4-azabicyclo[4.1.0]hept-3-en-5-yl)-4-fluorophenyl)-5-cyanopicolinamide]: the IC50 on Cathepsin D (Cat D) (read-out: CatD IC50) is 698 µM. Also, in the experiment on Abeta 40, the “% reduction of rat CSF levels (3 mpk)” value is recorded as 66 (3 mpk) %, the “% reduction of rat CSF levels at 10 pmk” value is listed as 78%, the “% reduction of rat brain levels (3 mpk)” value is 46 (3 mpk) % and the “% reduction … at 10 mpk” value came to 71%.

`NC1=N[C@](CF)(c2cc(NC(=O)c3cnc(OCC(F)(F)F)cn3)cc(Cl)c2F)[C@H]2C[C@H]2O1` [Example 90, N-(3-((1R,5S,6R)-3-amino-5-(fluoromethyl)-2-oxa-4-azabicyclo[4.1.0]hept-3-en-5-yl)-5-chloro-4-fluorophenyl)-5-(2,2,2-trifluoroethoxy)pyrazine-2-carboxamide]: the IC50 turned out to be 0.0136 µM in experiment [1], 913 µM on Cathepsin D (Cat D) (read-out: CatD IC50) and 0.0213 µM on BACE. Further, in the experiment on Abeta 40, the “% reduction of rat CSF levels at 10 pmk” value amounted to 48%. Further, the “% reduction … at 10 mpk” value in the experiment with Abeta 40 came to 31%.

Regarding `N#Cc1ccc(C(=O)Nc2ccc(Cl)c([C@@]3(C(F)F)N=C(N)O[C@@H]4C[C@@H]43)c2)nc1` [Example 93, N-(3-((1R,5S,6R)-3-amino-5-(difluoromethyl)-2-oxa-4-azabicyclo[4.1.0]hept-3-en-5-yl)-4-chlorophenyl)-5-cyanopicolinamide], the IC50 at Cathepsin D (Cat D) (read-out: CatD IC50) is 1300 µM. Besides, in the experiment with Abeta 40, the “% reduction of rat CSF levels at 10 pmk” value was found to be 76% and the “% reduction … at 10 mpk” value stood at 83%.

As to `C#CCOc1cnc(C(=O)Nc2ccc(F)c([C@@]3(C(F)F)N=C(N)O[C@@H]4C[C@@H]43)c2)cn1` [Example 95, N-(3-(((1R,5S,6R)-3-amino-5-(difluoromethyl)-2-oxa-4-azabicyclo[4.1.0]hept-3-en-5-yl)-4-fluorophenyl)-5-(prop-2-yn-1-yloxy)pyrazine-2-carboxamide trifluoroacetate], the IC50 in experiment [1] was found to be 0.0035 µM; on Cathepsin D (Cat D) (read-out: CatD IC50), 143 µM; against BACE it was 0.008 µM. Besides, the “% reduction of rat CSF levels at 10 pmk” value in the experiment with Abeta 40 is recorded as 82%. Also, in the experiment with Abeta 40, the “% reduction … at 10 mpk” value was 77%.

On to `C#C[C@H](C)Oc1cnc(C(=O)Nc2ccc(F)c([C@@]3(C(F)F)N=C(N)O[C@@H]4C[C@@H]43)c2)cn1` [Example 162, N-(3-((1R,5S,6R)-3-amino-5-(difluoromethyl)-2-oxa-4-azabicyclo[4.1.0]hept-3-en-5-yl)-4-fluorophenyl)-5-((S)-but-3-yn-2-yloxy)pyrazine-2-carboxamide], for which, at Cathepsin D (Cat D) (read-out: CatD IC50), the IC50 stood at 1060 µM. Besides, in the experiment with Abeta 40, the “% reduction of rat CSF levels at 10 pmk” value stood at 11% and the “% reduction … at 10 mpk” value is recorded as −7%.

As for `NC1=N[C@@](c2cc(NC(=O)c3nn(C(F)F)cc3Cl)ccc2F)(C(F)F)[C@H]2C[C@H]2O1` [Example 163, N-(3-((1R,5S,6R)-3-amino-5-(difluoromethyl)-2-oxa-4-azabicyclo[4.1.0]hept-3-en-5-yl)-4-fluorophenyl)-4-chloro-1-(difluoromethyl)-1H-pyrazole-3-carboxamide], the half-maximal inhibitory concentration (IC50) on Cathepsin D (Cat D) (read-out: CatD IC50) amounted to 464 µM. In the experiment with Abeta 40, the “% reduction of rat CSF levels at 10 pmk” value is reported as 33% and the “% reduction … at 10 mpk” value is 14%.

Take `NC1=N[C@@](c2cc(NC(=O)c3ncc(Br)cn3)ccc2F)(C(F)F)[C@H]2C[C@H]2O1` [Example 267, N-(3-((1R,5S,6R)-3-amino-5-(difluoromethyl)-2-oxa-4-azabicyclo[4.1.0]hept-3-en-5-yl)-4-fluorophenyl)-5-bromopyrimidine-2-carboxamide]: in the experiment with Abeta 40, the “% reduction of rat CSF levels at 10 pmk” value was −1% and the “% reduction … at 10 mpk” value amounted to 11%. Further, the concentration for half-maximal inhibition (IC50) on BACE came to 0.015 µM.

As for `Cc1cc(Cl)cnc1C(=O)Nc1cc(C)c(F)c([C@@]2(C(F)F)N=C(N)O[C@@H]3C[C@@H]32)c1` [Example 303, N-(3-((1R,5S,6R)-3-amino-5-(difluoromethyl)-2-oxa-4-azabicyclo[4.1.0]hept-3-en-5-yl)-4-fluoro-5-methylphenyl)-5-chloro-3-methylpicolinamide], the 50% inhibitory concentration (IC50) at Cathepsin D (Cat D) (read-out: CatD IC50) is 335 µM. For the same compound, in the experiment with Abeta 40, the “% reduction of rat CSF levels at 10 pmk” value was 57% and the “% reduction … at 10 mpk” value was found to be 50%.

On to `Cc1cc(NC(=O)c2ccc(C#N)cn2)cc([C@@]2(C(F)F)N=C(N)O[C@@H]3C[C@@H]32)c1F` [Example 390, N-(3-((1R,5S,6R)-3-amino-5-(difluoromethyl)-2-oxa-4-azabicyclo[4.1.0]hept-3-en-5-yl)-4-fluoro-5-methylphenyl)-5-cyanopicolinamide], for which, in the experiment on Abeta 40, the “% reduction of rat CSF levels at 10 pmk” value came out at 71% and the “% reduction … at 10 mpk” value is given as 54%.

With `NC1=N[C@@](c2cc(NC(=O)c3c(F)cc(F)cc3F)ccc2F)(C(F)F)[C@H]2C[C@H]2O1` [Example 451, N-(3-((1R,5S,6R)-3-amino-5-(difluoromethyl)-2-oxa-4-azabicyclo[4.1.0]hept-3-en-5-yl)-4-fluorophenyl)-2,4,6-trifluorobenzamide], the IC50 came to 5.38 µM in experiment [1], 960 µM at Cathepsin D (Cat D) (read-out: CatD IC50) and 6.28 µM at BACE.
